The assay concerns the target T1, soluble epoxide hydrolase (sEH) (Homo sapiens, UniProt P34913).
T1 sequence (P34913 1-555): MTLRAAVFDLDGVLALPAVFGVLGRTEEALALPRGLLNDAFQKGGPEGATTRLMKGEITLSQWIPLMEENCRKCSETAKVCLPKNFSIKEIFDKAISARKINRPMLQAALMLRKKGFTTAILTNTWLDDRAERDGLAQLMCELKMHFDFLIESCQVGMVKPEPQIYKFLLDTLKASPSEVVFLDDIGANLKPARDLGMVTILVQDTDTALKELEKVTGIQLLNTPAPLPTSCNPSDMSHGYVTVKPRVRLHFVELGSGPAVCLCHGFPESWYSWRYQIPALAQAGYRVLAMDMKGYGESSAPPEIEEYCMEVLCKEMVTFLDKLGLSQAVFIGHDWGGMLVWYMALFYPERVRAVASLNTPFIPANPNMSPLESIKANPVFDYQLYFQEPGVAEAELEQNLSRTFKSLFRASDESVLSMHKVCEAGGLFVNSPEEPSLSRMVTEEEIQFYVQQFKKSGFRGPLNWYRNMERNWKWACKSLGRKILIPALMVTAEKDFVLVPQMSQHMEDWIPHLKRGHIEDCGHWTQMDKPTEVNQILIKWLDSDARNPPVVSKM
Description: in vitro biochemical activity test, sEH enzyme inhibition with EET substrate (LC-MS). Particulars: 90 min pre-incubation at room temperature, 60 min reaction. On the procedure: This example relates to the relationship between the structure and activity of (hetero)aryl imidazole compounds containing an aromatic substituent. Specifically, the biochemical activity of the (hetero)aryl imidazole compounds containing an aromatic substituent described in Example 1 as sEH enzyme inhibitors was evaluated by in vitro activity test experiments.
The experimental procedures for evaluating in vitro biochemical activity were described below.
The substrate used in the evaluation experiment was epoxyeicosatrienoic acid (EET). The solutions used in the evaluation experiments were Bis/Tris HCl 25 mM pH 7.0, Bis/Tris HCl 25 mM pH 7.0 containing 0.1 mg/mL BSA was used as buffer A, and Bis/Tris HCl 25 mM pH 7.0 containing 36.3 mM ZnSO4 was used as buffer B.
The specific steps of the evaluation experiment were as follows. 79 μL of buffer A was added to each well in a black 96-well plate and then 1 μL solution of the aromatic substituent-containing (hetero)aryl imidazole compound was added. Then, 10 μL sEH (1 μM) buffer A solution was added to the wells. After pre-incubation at room temperature for 90 min, 10 μL EET (10 μM) buffer A solution was added to trigger the reaction. After the mixture was allowed to react […] for 60 min, 15 μL buffer B and 180 μL acetonitrile were added to quench the reaction, followed by high-speed centrifugation and filtration for later use.
LC-MS was used to detect the concentration of EET in the samples. The final IC50 was calculated based on three independent experiments using Graphpad Prism software.
The molecule `Cc1nn(S(C)(=O)=O)c(C)c1-c1cc2nc(-c3ccc(C(F)(F)F)cc3)[nH]c2cc1F` [Compound 24, 6-(3,5-dimethyl-1-(methyl-sulfonyl)-1H-pyrazo1-4-yl)-5-fluoro-2-(4-(trifluoromethyl)-phenyl)-1H-benzo[d]imidazole] came in with an IC50 of 0.2 nM.
The figure for `Cc1ncc(-c2cc3nc(-c4ccc(C(F)(F)F)cc4)[nH]c3c(F)c2F)c(C)n1` [Compound 5] is 0.074 nM; for `Cc1ccc(-c2cc3nc(-c4ccc(C(F)(F)F)cc4)[nH]c3cc2F)c(Cl)n1` [Compound 12, 6-(2-chloro-6-methylpyridin-3-yl)-5-fluoro-2-(4-(trifluoro-methyl)phenyl)-1H-benzo[d] imidazole] it is 0.058 nM.
Molecule `CNS(=O)(=O)c1ccc(-c2nc3cc(-c4cnc(F)cc4C)c(F)cc3[nH]2)cc1` [Compound 37, 4-(5-fluoro-6-(6-fluoro-4-methylpyridin-3-yl)-1H-benzo [d]imidazol-2-yl)-N-methyl-benzenesulfonamide] displayed an IC50 of 0.38 nM.
The figure for `Cc1nc(N)ncc1-c1cc2nc(-c3ccc(S(=O)(=O)N(C)C)cc3)[nH]c2c(F)c1F` [Compound 27, 4-(6-(2-amino-4-methylpyr-imid-5-yl)-4,5-difluoro-1H-benzo[d]imidazol-2-yl)-N,N-dimethylbenzenesulfonamide] is 0.056 nM.
The figure for `CC(C)n1nccc1-c1cc2nc(-c3ccc(S(C)(=O)=O)cc3)[nH]c2cc1F` [Compound 19, 5-fluoro-6-(1-isopropyl-1H-pyrazol-5-yl)-2-(4-(methyl-sulfonyl)phenyl)-1H-benzo[d] imidazole] is 0.98 nM; for `Cc1nc(N)ncc1-c1cc2nc(-c3ccc(S(=O)(=O)N(C)C)cc3)[nH]c2cc1F` [Compound 22, 4-(6-(2-amino-4-methylpyr-imid-5-yl)-5-fluoro-1H-benzo [d]imidazol-2-yl)-N,N-dimeth-yl-benzenesulfonamide] it is 0.1 nM; for `Nc1ncc(-c2cc3[nH]c(-c4ccc(C(F)F)cc4)nc3c(F)c2F)c(C(F)F)n1` [Compound 46, 4-(difluoromethyl)-5-(2-(4-(difluoromethyl)phenyl)-4,5-difluoro-1H-benzo[d]imid-azol-6-yl)pyrimidine-2-amine] it is 0.042 nM.
The same measure for `COc1cc(C)c(-c2cc3nc(-c4ccc(S(=O)(=O)N(C)C)cc4)[nH]c3cc2F)cn1` [Compound 39, 4-(5-fluoro-6-(6-methoxy-4-methylpyridin-3-yl)-1H-benzo [d]imidazol-2-yl)-N,N-dimeth-ylbenzenesulfonamide]: 0.088 nM; for `CN(C)S(=O)(=O)c1ccc(-c2nc3cc(-c4ccnn4C(C)(C)F)c(F)cc3[nH]2)cc1` [Compound 38, 4-(5-fluoro-6-(1-(2-fluoropro-pan-2-yl)-1H-pyrazol-5-yl)-1H-benzo[d]imidazol-2-yl)-N,N-dimethylbenzenesulfon-amide]: 0.045 nM.
`Cc1nc(N)ncc1-c1cc2[nH]c(-c3ccc(C(F)F)cc3)nc2c(F)c1F` [Compound 44, 5-(2-(4-(difluoromethyl)phen-yl)-4,5-difluoro-1H-benzo[d]imidazol-6-yl)-4-methylpyr-imidine-2-amine] returned an IC50 of 0.096 nM.
The same measure for `Cc1cc(F)ncc1-c1cc2nc(-c3ccc(S(N)(=O)=O)cc3)[nH]c2cc1F` [Compound 36, 4-(5-fluoro-6-(6-fluoro-4-methylpyridin-3-yl)-1H-benzo [d]imidazol-2-l)benzenesulfon-amide]: 0.54 nM; for `Nc1ncc(-c2cc3[nH]c(-c4ccc(F)c(C(F)(F)F)c4)nc3c(F)c2F)c(C(F)F)n1` [Compound 81, 5-(2-(3-(trifluoromethyl)-4-fluorophenyl)-4,5-difluoro-1H-benzo[d]imidazol-6-yl)-4-(difluoromethyl)pyrimidine-2-amine]: 0.15 nM; for `CC(C)c1nc(N)ncc1-c1cc2nc(-c3ccc(S(=O)(=O)N(C)C)cc3)[nH]c2cc1F` [Compound 34, 4-(6-(2-amino-4-isopropyl-pyrimid-5-yl)-5-fluoro-1H-benzo[d]imidazol-2-yl)-N,N-dimethylbenzenesulfonamide]: 0.058 nM.

For the origin of these results see patent US20260297065A1, “AROMATIC SUBSTITUENT-CONTAINING (HETERO) ARYL-IMIDAZOLE COMPOUND, AND PREPARATION METHOD THEREFOR AND USE THEREOF” (OPEN SOURCE THERAPEUTICS, priority 2022, published 2026).
